Experimental findings from patent publication US5710157A, “2,4-diamino-5,6-disubstituted-and 5,6,7-trisubstituted-5-deazapteridines as insecticides” (FMC Corporation, priority 1996, dated 1998) are described below.

The structures appear in SMILES notation.

The assay relates to tobacco budworm (Heliothis virescens [Fabricius]). In words: diet test: insect growth inhibition and mortality, tobacco budworm larvae, 5-day exposure. The assay is classed as in vivo. The note with it: second instar larvae. The procedure:
The 5-deazapteridine of the present invention were incorporated into an artificial diet for evaluation of insecticidal activity against the tobacco budworm (Heliothis virescens [Fabricius]).
Stock solutions of test chemical in dimethyl sulfoxide were prepared for each rate of application. The rates of application, expressed as the negative log of the molar concentration, and the corresponding concentrations of the stock solution prepared for each rate are shown below:
One hundred microliters of each of the stock solutions was manually stirred into 50 mL of a molten (65°-70° C.) wheat germ-based artificial diet. The 50 mL of molten diet containing the test chemical was poured evenly into twenty wells in the outer four rows of a twenty-five well, five row plastic tray. Each well in the tray was about 1 cm in depth, with an opening of 3 cm by 4 cm at the lip. Molten diet containing only dimethyl sulfoxide at the levels used in the test chemical-treated diet was poured into the five wells in the third row of the tray. Each tray therefore contained one test chemical at a single rate of application, together with an untreated control.
Single second instar tobacco budworm larvae were placed in each well. The larvae were selected at a stage of growth at which they uniformly weigh about 5 mg each. Upon completion of infestation, a sheet of clear plastic was heat-sealed over the top of the tray using a common household flat iron. The trays were held at 25° C. at 60% relative humidity for five days in a growth chamber. Lighting was set at 14 hours of light and 10 hours of darkness.
After the 5-day exposure period, mortality counts were taken, and the surviving insects were weighed. From the weights of the surviving insects that fed on the treated diet as compared to those insects that fed on the untreated diet, the percent growth inhibition caused by each test chemical was determined. […] Where possible, the negative log of the concentration of the test chemical that provided 50% mortality (pLC50) was also determined.
The compounds of the present invention were tested in the diet test as insect growth inhibitors against the larvae of tobacco budworm (above).

Take `COc1ccc(OC)c(Cc2cnc3nc(N)nc(N)c3c2C)c1` [Compound 90, 2,4-diamino-5-methyl-6-(2,5-dimethoxyphenylmethyl)-5-deazapteridine]: the IC50 (Heliothis virescens, 120 h, artificial diet, linear regression, read-out: pI50: negative log of the concentration that provides 50% growth inhibition (converted)) is 1 µM. For the same compound, the “Percent Growth Inhibition” value reads like this: (rate of application 4 (negative log of molar concentration in diet)) 95%; (rate of application 5 (negative log of molar concentration in diet)) 87%; (rate of application 6 (negative log of molar concentration in diet)) 41%; (rate of application 7 (negative log of molar concentration in diet)) 26%.
